Measurements reported in patent publication US20110306922A1, “LIGHT-EMITTING DEVICES FOR PHOTOTHERAPY” (priority 2010, published 2011).

Tests used:
[1] = tested on: CHO-K1 (Chinese Hamster Ovarian Cancer, ATCC, CRL-2243) cell line; experiment: cells; settings: Cricetulus griseus, CHO-K1, light or radiation study, read-out: cells destroyed (cell viability, light dosimetry)
[2] = tested on: CHO-K1 (Chinese Hamster Ovarian Cancer, ATCC, CRL-2243) cell line
[3] = tested on: age-related macular degeneration; experiment: Intravenous verteporphin plus red OLED illumination of the retina, age-related macular degeneration; assay type: in vivo, person; settings: about 6 mg/m^2 i.v.; about 20 mW/cm^2 for about 42 minutes, about 50 J/cm
Experimental: (§1) Verteporphin is intravenously injected, over a period of about 10 minutes at a rate of about 3 mL/min, to a person suffering from age-related macular degeneration. The verteporphin (7.5 mL of 2 mg/mL reconstituted solution, available as Visudyne® from Novartis) is diluted with 5% dextrose to a volume of 30 mL using a sufficient quantity of the reconstituted verteporphin so that the total dose injected is about 6 mg/m^2 of body surface.
The treatment is repeated as needed.

[4] = tested on: pathological myopia; experiment: Intravenous verteporphin plus red OLED illumination of the retina, pathological myopia; assay type: in vivo, person; settings: about 6 mg/m^2 i.v.; about 20 mW/cm^2 for about 42 minutes, about 50 J/cm2
Experimental: as §1, with “minute” for “minutes”, “pathological myopia.” for “age-related macular degeneration.”
After treatment, the patient's vision is anticipated to be stabilized. The treatment is repeated as needed.

[5] = tested on: presumed ocular histoplasmosis; parameters: species or system person; settings: in vivo, iv

Structure (SMILES)	cytotoxicity at 1000 µM [1] [%]	generation of PpIX (fluorescence emission at 635 nm) ([2]; ALA 0.5 mM, 1 mM, 2 mM, incubated about 16 hrs at 37° C.)	optical microscope images of the cells: healthy leafy type cells transform to droplet type ([2]; after 25 J/cm^2 red light (630 nm) irradiation from OLED)	patient's vision [3]	patient's vision [4]	patient's vision [5]
NCC(=O)CCC(=O)O [ALA, 5-aminolevulinic acid]	~90	confirmed	significant cell death	–	–	–
C=Cc1c(C)c2cc3nc(cc4[nH]c(cc5nc(cc1[nH]2)C(C)=C5CCC(=O)O)c(CCC(=O)OC)c4C)[C@@]1(C)C3=CC=C(C(=O)OC)[C@H]1C(=O)OC [Verteporphin]	–	–	–	stabilized	stabilized	stabilized
